Data from patent publication US20100292214A1, “Compounds with Antiparasitic Activity, Applications thereof to the Treatment of Infectious Diseases Caused by Apicomplexans” (commissariat a l'Energie Atomique, priority 2007, published 2010).
Where a name gives a salt, the structure may show the parent alone. Read-outs that look alike come from different tables or passages of the source.

Tested on: asynchronous 3D7 chloroquine-sensitive P. falciparum infected red blood cells
Assay: Labeled hypoxanthine incorporation assay (in vitro anti-malarial activity)
Format: cell-based
Conditions: read-out: IC50 assessed on Plasmodium Falciparum
[1] = Plasmodium falciparum, 3D7, Erythrocyte, 3D7 chloroquine-sensitive strain, infected RBC, 48 h contact, [3H]-hypoxanthine incorporation, two independent experiments in duplicates
[2] = Plasmodium falciparum, 3D7, Erythrocyte

Row | SMILES | IC50 [1] [nM] | further results
1 | C[C@@H]1CC[C@H]2[C@@H](C)C(=O)O[C@@H]3O[C@@]4(C)CC[C@@H]1[C@]32OO4 [Artemisinine, reference compound] | 28.7 | 
2 | C[C@H]1[C@H](OC(=O)CCC(=O)O)O[C@@H]2O[C@@]3(C)CC[C@H]4[C@H](C)CC[C@@H]1[C@@]24OO3 [Artesunate, reference compound] |  | IC50 [2]: 9.7 nM
3 | CCN(CC)CCCC(C)Nc1ccnc2cc(Cl)ccc12 (centres unmarked) [Chloroquine, reference compound] |  | IC50 [2]: 10.3 nM
4 | O=C(OCCN(Cc1ccccc1)Cc1ccc(OCc2ccccc2)cc1)N1CCC(n2c(=O)[nH]c3ccccc32)CC1 [Compound 100, 2-(benzyl(4-(benzyloxy)benzyl)amino)ethyl 4-(2-oxo-2,3-dihydro-1H-benzo[d]imidazol-1-yl)piperidine-1-carboxylate] | 3150 | 
5 | O=C(OCCN(Cc1ccccc1)Cc1c(F)cccc1F)N1CCC(n2c(=O)[nH]c3ccccc32)CC1 [Compound 101, 2-(benzyl(2,6-difluorobenzyl)amino)ethyl 4-(2-oxo-2,3-dihydro-1H-benzo[d]imidazol-1-yl)piperidine-1-carboxylate] | 5370 | 
6 | O=C(OCCN(Cc1ccccc1)Cc1cccc(OCc2ccccc2)c1)N1CCC(n2c(=O)[nH]c3ccccc32)CC1 [Compound 103, 2-(benzyl(3-(benzyloxy)benzyl)amino)ethyl 4-(2-oxo-2,3-dihydro-1H-benzo[d]imidazol-1-yl)piperidine-1-carboxylate] | 3570 | 
7 | O=C(OCCN(C/C=C/c1ccccc1)Cc1ccccc1)N1CCC(n2c(=O)[nH]c3ccccc32)CC1 [Compound 104, (E)-2-(benzyl(cinnamyl)amino)ethyl 4-(2-oxo-2,3-dihydro-1H-benzo[d]imidazol-1-yl)piperidine-1-carboxylate] | 4970 | 
8 | CC(C)(C)OC(=O)N(Cc1ccccc1)[C@H](COC(=O)N1CCC(n2c(=O)[nH]c3ccccc32)CC1)Cc1ccccc1 [Compound 106, (S)-2-(benzyl(tert-butoxycarbonyl)amino)-3-phenylpropyl 4-(2-oxo-2,3-dihydro-1H-benzo[d]imidazol-1-yl)piperidine-1-carboxylate] | 828 | 
9 | C[C@@H](COC(=O)N1CCC(n2c(=O)[nH]c3ccccc32)CC1)N(Cc1ccccc1)Cc1ccc(Br)cc1 [Compound 116, S)-2-(benzyl(4-bromobenzyl)amino)propyl 4-(2-oxo-2,3-dihydro-1H-benzo[d]imidazol-1-yl)piperidine-1-carboxylate hydrochloride] |  | IC50 (3D7 chloroquine-sensitive strain, infected RBC, 48 h contact, [3H]-hypoxanthine incorporation, two independent experiments in duplicates): 2880 nM
10 | COc1ccc(CN(CCCOC(=O)N2CCC(n3c(=O)[nH]c4ccccc43)CC2)Cc2ccccc2)cc1 [Compound 117, 3-(benzyl(4-methoxybenzyl)amino)propyl 4-(2-oxo-2,3-dihydro-1H-benzo[d]imidazol-1-yl)piperidine-1-carboxylate hydrochloride] | 1870 | 
11 | O=C(OCCN(Cc1ccccc1)Cc1cccc(Cl)c1)N1CCC(n2c(=O)[nH]c3ccccc32)CC1 [Compound 124, 2-(benzyl(3-chlorobenzyl)amino)ethyl 4-(2-oxo-2,3-dihydro-1H-benzo[d]imidazol-1-yl)piperidine-1-carboxylate hydrochloride] | 3310 | 
12 | O=C(OCCN(Cc1ccccc1)Cc1cccc2ccccc12)N1CCC(n2c(=O)[nH]c3ccccc32)CC1 [Compound 130, 2-(benzyl(naphthalen-1-ylmethyl)amino)ethyl 4-(2-oxo-2,3-dihydro-1H-benzo[d]imidazol-1-yl)piperidine-1-carboxylate hydrochloride] | 3870 | 
13 | O=C(OCCCN(Cc1ccccc1)Cc1cccnc1)N1CCC(n2c(=O)[nH]c3ccccc32)CC1 [Compound 134, 3-(benzyl(pyridin-3-ylmethyl)amino)propyl 4-(2-oxo-2,3-dihydro-1H-benzo[d]imidazol-1-yl)piperidine-1-carboxylate hydrochloride] | 1290 | 
14 | O=C(OCCCN(CCOCc1ccccc1)Cc1ccccc1)N1CCC(n2c(=O)[nH]c3ccccc32)CC1 [Compound 143, 3-(benzyl(2-(benzyloxy)ethyl)amino)propyl 4-(2-oxo-2,3-dihydro-1H-benzo[d]imidazol-1-yl)piperidine-1-carboxylate hydrochloride] | 4270 | 
15 | O=C(OCCCN(Cc1ccccc1)Cc1ccc(F)cc1)N1CCC(n2c(=O)[nH]c3ccccc32)CC1 [Compound 147, 3-(benzyl(4-fluorobenzyl)amino)propyl 4-(2-oxo-2,3-dihydro-1H-benzo[d]imidazol-1-yl)piperidine-1-carboxylate hydrochloride] | 2220 | 
16 | O=C(OCCCN(CCCc1ccccc1)Cc1ccccc1)N1CCC(n2c(=O)[nH]c3ccccc32)CC1 [Compound 148, 3-(benzyl(3-phenylpropyl)amino)propyl 4-(2-oxo-2,3-dihydro-1H-benzo[d]imidazol-1-yl)piperidine-1-carboxylate hydrochloride] | 4610 | 
17 | COc1ccccc1CN(CCOC(=O)N1CCC(n2c(=O)[nH]c3ccccc32)CC1)Cc1ccccc1 [Compound 151, 2-(benzyl(2-methoxybenzyl)amino)ethyl 4-(2-oxo-2,3-dihydro-1H-benzo[d]imidazol-1-yl)piperidine-1-carboxylate] | 4660 | 
18 | O=C(OC[C@H](Cc1ccccc1)N(Cc1ccccc1)Cc1ccccc1)N1CCC(N(c2ccccc2)S(=O)(=O)c2cccc3ccccc23)CC1 [Compound 162, (S)-2-(dibenzylamino)-3-phenylpropyl 4-(N-phenyl-naphthalen-1-ylsulfonamido)piperidine-1-carboxylate] | 1330 | 

Further lines, with some results ahead:

Row | IC50 [1] [nM] | SMILES | further results
19 | 780 | C[C@@H](COC(=O)N1CCC(n2c(=O)n(S(=O)(=O)c3cccc4cccnc34)c3ccccc32)CC1)N(Cc1ccccc1)Cc1ccccc1 [Compound 60, (S)-2-(dibenzylamino)propyl 4-(2-oxo-3-(quinolin-8-ylsulfonyl)-2,3-dihydro-1H-benzo[d]imidazol-1-yl)piperidine-1-carboxylate] | 
20 | 7470 | C[C@@H](COC(=O)N1CCC(n2c(=O)[nH]c3ccccc32)CC1)N(Cc1ccccc1)Cc1ccco1 [Compound 102, (S)-2-(benzyl(furan-2-ylmethyl)amino)propyl 4-(2-oxo-2,3-dihydro-1H-benzo[d]imidazol-1-yl)piperidine-1-carboxylate] | 
21 | 2810 | CC(C)[C@@H](COC(=O)N1CCC(n2c(=O)[nH]c3ccccc32)CC1)N(Cc1ccccc1)Cc1ccccc1 [Compound 107, (S)-2-(dibenzylamino)-3-methylbutyl 4-(1,2-dihydro-2-oxobenzo[d]imidazol-3-yl)piperidine-1-carboxylate] | 
22 | 2400 | CC(C)(C)C(COC(=O)N1CCC(n2c(=O)[nH]c3ccccc32)CC1)N(Cc1ccccc1)Cc1ccccc1 (centres unmarked) [Compound 109, 2-(dibenzylamino)-3,3-dimethylbutyl 4-(1,2-dihydro-2-oxobenzo[d]imidazol-3-yl)piperidine-1-carboxylate] | 
23 | 2280 | CC(C)(COC(=O)N1CCC(n2c(=O)[nH]c3ccccc32)CC1)N(Cc1ccccc1)Cc1ccccc1 [Compound 111, 2-(dibenzylamino)-2-methylpropyl 4-(1,2-dihydro-2-oxobenzo[d]imidazol-3-yl)piperidine-1-carboxylate] | 
24 | 2450 | C[C@@H](COC(=O)N1CCC(n2c(=O)[nH]c3ccccc32)CC1)N(Cc1ccccc1)Cc1ccc([N+](=O)[O-])cc1 [Compound 113, (S)-2-(benzyl(4-nitrobenzyl)amino)propyl 4-(2-oxo-2,3-dihydro-1H-benzo[d]imidazol-1-yl)piperidine-1-carboxylate] | 
25 | 2670 | C[C@@H](COC(=O)N1CCC(n2c(=O)[nH]c3ccccc32)CC1)N(Cc1ccccc1)Cc1cccc(Oc2ccccc2)c1 [Compound 127, (S)-2-(benzyl(3-phenoxybenzyl)amino)propyl 4-(2-oxo-2,3-dihydro-1H-benzo[d]imidazol-1-yl)piperidine-1-carboxylate hydrochloride] | 
26 | 3630 | C[C@@H](COC(=O)N1CCC(n2c(=O)[nH]c3ccccc32)CC1)N(Cc1ccccc1)Cc1ccc(Cl)cc1 [Compound 129, (S)-2-(benzyl(4-chlorobenzyl)amino)propyl 4-(2-oxo-2,3-dihydro-1H-benzo[d]imidazol-1-yl)piperidine-1-carboxylate hydrochloride] | 
27 | 1590 | CCCc1ccc(S(=O)(=O)N(c2ccccc2)C2CCN(C(=O)OC[C@H](C)N(Cc3ccccc3)Cc3ccccc3)CC2)cc1 [Compound 154, (S)-2-(dibenzylamino)propyl 4-(N-phenyl-4-propylphenylsulfonamido)piperidine-1-carboxylate] | 
28 | 828 | COc1ccc(S(=O)(=O)N(c2ccccc2)C2CCN(C(=O)OC[C@H](Cc3ccccc3)N(Cc3ccccc3)Cc3ccccc3)CC2)cc1 [Compound 157, (S)-2-(dibenzylamino)-3-phenylpropyl 4-(N-phenyl-4-methoxyphenylsulfonamido)piperidine-1-carboxylate] | 
29 | 355 | C[C@@H](COC(=O)N1CCC(N(c2ccccc2)S(=O)(=O)c2ccc(C(F)(F)F)cc2)CC1)N(Cc1ccccc1)Cc1ccccc1 [Compound 158, (S)-2-(dibenzylamino)propyl 4-(N-phenyl-4-(trifluoromethyl)phenylsulfonamido)piperidine-1-carboxylate] | 
30 | 290 | C[C@@H](COC(=O)N1CCC(N(c2ccccc2)S(=O)(=O)c2cccc3ccccc23)CC1)N(Cc1ccccc1)Cc1ccccc1 [Compound 161, (S)-2-(dibenzylamino)propyl 4-(N-phenyl-naphthalen-1-ylsulfonamido)piperidine-1-carboxylate] | 
31 | 1260 | C[C@@H](COC(=O)N1CCC(Nc2ccccc2S(=O)(=O)c2ccccc2)CC1)N(Cc1ccccc1)Cc1ccccc1 [Compound 164, (S)-2-(dibenzylamino)propyl 4-(2-(phenylsulfonyl)phenylamino)piperidine-1-carboxylate] | 
32 | 3690 | C[C@@H](COC(=O)N1CCC(N(C)c2ccccc2)CC1)N(Cc1ccccc1)Cc1ccccc1 [Compound 166, (S)-2-(dibenzylamino)propyl 4-(N-methyl-N-phenylamino)piperidine-1-carboxylate] | 
